Data taken from patent US11512268B2, “Storage-stable enzyme preparations, their production and use” (BASF SE, priority 2017, dated 2022).

Columns and labels:
Savinase = biological target: T1, Savinase (Lederbergia lenta, UniProt P29600); test: storage stability of protease (Savinase activity, Suc-AAPF-pNA substrate) in liquid formulations at 37° C.; type: biochemical; conditions: component (a) 2.5 wt %, Savinase 16.0 L 0.5 wt %, storage at 37° C.
T1 construct: purchased Sigma-Aldrich
T1 sequence (P29600 1-269): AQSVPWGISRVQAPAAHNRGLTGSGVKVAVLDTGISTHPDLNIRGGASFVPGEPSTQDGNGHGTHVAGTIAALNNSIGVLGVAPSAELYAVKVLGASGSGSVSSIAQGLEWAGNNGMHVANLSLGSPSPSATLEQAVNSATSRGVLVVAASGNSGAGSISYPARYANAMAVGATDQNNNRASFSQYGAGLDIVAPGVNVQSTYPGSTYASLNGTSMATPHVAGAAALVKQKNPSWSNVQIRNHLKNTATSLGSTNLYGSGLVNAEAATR
Experimental: (§1) The storage stability of Lipase and Protease in water was assessed at 37° C.
(§2) Base test formulations were manufactured by making base formulations I to VI by mixing the components according to Table 1.
(§3) The respective salt (component (a)) or comparative compound was added, if applicable, to the respective base formulation in amounts as indicated in Table 1.
(§4) The amount of enzyme as provided in Table 1 refers to active protein. Either lipase or protease was added, depending on which enzyme activity was measured.
(§5) Lipolase® 100 L (CAS-No. 9001-62-1, EC-No. 232-619-9) was purchased from Sigma-Aldrich. Savinase® 16.0 L (CAS-No. 9014-01-1, EC-No. 232-752-2) was purchased from Sigma-Aldrich.
Savinase activity at certain points in time as indicated in Table 3 was be determined by employing Succinyl-Ala-Ala-Pro-Phe-p-nitroanilide (Suc-AAPF-pNA, short AAPF) as substrate. pNA is cleaved from the substrate molecule by proteolytic cleavage, resulting in release of yellow color of free pNA which was determined by measuring OD405. Measurement were done at 20° C.
The proteolytic activity values provided in Table 3 were calculated referring to the 100% value determined in the reference formulation at the time 0.
(§6) The nomenclature of formulations is as follows: the Roman number before the full stop characterizes the base formulation, the Arabian number the type of salt (A.# inventive salt (component (a)); C-(A.#) comparative compound). Zero (“0”): no salt, but diethylene glycol.

Lipolase = biological target: T2, Lipolase (Thermomyces lanuginosus, UniProt O59952); test: storage stability of lipase (Lipolase activity, pNitrophenol-valerate substrate) in liquid formulations at 37° C.; type: biochemical, Thermomyces lanuginosa; conditions: Lipolase 0.4 wt %, storage at 37° C.
T2 construct: purchased Sigma-Aldrich
T2 sequence (O59952 23-291): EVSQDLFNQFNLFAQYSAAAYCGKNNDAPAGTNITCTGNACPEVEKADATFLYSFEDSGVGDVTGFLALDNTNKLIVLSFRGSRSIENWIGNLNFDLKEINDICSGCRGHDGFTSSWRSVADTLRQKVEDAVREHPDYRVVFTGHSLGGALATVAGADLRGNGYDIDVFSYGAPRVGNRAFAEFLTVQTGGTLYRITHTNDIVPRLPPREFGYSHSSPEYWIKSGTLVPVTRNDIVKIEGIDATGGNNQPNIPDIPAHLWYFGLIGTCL
Experimental: as §1, §2, §3, §4, §5
Lipolase activity at certain points in time as indicated in Table 2 was be determined by employing pNitrophenol-valerate (2.4 mM pNP-C5 in 100 mM Tris pH 8.0, 0.01% Triton X100) as a substrate. The absorption was measured at 20° C. every 30 seconds over 5 minutes at 405 nm. The slope (absorbance increase at 405 nm per minute) of the time dependent absorption-curve is directly proportional to the activity of the lipase.
The lipolytic activity values provided in Table 2 were calculated referring to the 100% value determined in the reference formulation at the time 0.
as §6

SMILES: C[N+](C)(C)CCO.C[N+](C)(C)CCO.O=C([O-])CC(O)(CC(=O)O)C(=O)[O-] [C-(A.17)]
- protease activity (Savinase; base formulation I., 1 d): 90%
- protease activity (Savinase; base formulation I., 3 d): 81%
- protease activity (Savinase; base formulation I., 6 d): 70%
- protease activity (Savinase; base formulation I., 10 d): 49%
- protease activity (Savinase; base formulation I., 15 d): 38%
- protease activity (Savinase; base formulation I., 20 d): 30%
- protease activity (Savinase; base formulation I., 25 d): 23%
- protease activity (Savinase; base formulation I., 30 d): 12%
- protease activity (Savinase; base formulation I., T0): 98%
- protease activity (Savinase; base formulation III., 1 d): 94%
- protease activity (Savinase; base formulation III., 3 d): 83%
- protease activity (Savinase; base formulation III., 6 d): 71%
- protease activity (Savinase; base formulation III., 10 d): 53%
- protease activity (Savinase; base formulation III., 15 d): 42%
- protease activity (Savinase; base formulation III., 20 d): 34%
- protease activity (Savinase; base formulation III., 25 d): 27%
- protease activity (Savinase; base formulation III., 30 d): 14%
- protease activity (Savinase; base formulation III., T0): 92%
- lipase activity (Lipolase; base formulation I., component (a) 2.5 wt %, 1 d): 90%
- lipase activity (Lipolase; base formulation I., component (a) 2.5 wt %, 3 d): 80%
- lipase activity (Lipolase; base formulation I., component (a) 2.5 wt %, 6 d): 70%
- lipase activity (Lipolase; base formulation I., component (a) 2.5 wt %, 10 d): 53%
- lipase activity (Lipolase; base formulation I., component (a) 2.5 wt %, 15 d): 42%
- lipase activity (Lipolase; base formulation I., component (a) 2.5 wt %, 20 d): 38%
- lipase activity (Lipolase; base formulation I., component (a) 2.5 wt %, 25 d): 33%
- lipase activity (Lipolase; base formulation I., component (a) 2.5 wt %, 30 d): 29%
- lipase activity (Lipolase; base formulation I., component (a) 2.5 wt %, T0): 97%
- lipase activity (Lipolase; base formulation IV., component (a) 4.0 wt %, 1 d): 93%
- lipase activity (Lipolase; base formulation IV., component (a) 4.0 wt %, 3 d): 86%
- lipase activity (Lipolase; base formulation IV., component (a) 4.0 wt %, 6 d): 74%
- lipase activity (Lipolase; base formulation IV., component (a) 4.0 wt %, 10 d): 63%
- lipase activity (Lipolase; base formulation IV., component (a) 4.0 wt %, 15 d): 51%
- lipase activity (Lipolase; base formulation IV., component (a) 4.0 wt %, 20 d): 46%
- lipase activity (Lipolase; base formulation IV., component (a) 4.0 wt %, 25 d): 38%
- lipase activity (Lipolase; base formulation IV., component (a) 4.0 wt %, 30 d): 33%
- lipase activity (Lipolase; base formulation IV., component (a) 4.0 wt %, T0): 96%
